Assay results as given in patent EP0170180A1, “Substituted guanidinobenzoic-acid phenyl esters, process for their production and their use as pharmaceutical preparations” (SCHERING AKTIENGESELLSCHAFT, priority 1984, dated 1986).
Counter-ions that a name gives are not always drawn.

How the values were obtained:
Humanakrosin [1] = biological target: T1, Humanakrosin (Homo sapiens, UniProt P10323); test: Acrosin (human) assay: inhibition of isolated human acrosin; type: biochemical; conditions: Substrat: Benzoyl-L-arginyleth.-ester; read-out: I50
T1 construct: endogenous in cells; host or cells: intact human spermatozoa (Humansperma)
T1 sequence (P10323 20-421): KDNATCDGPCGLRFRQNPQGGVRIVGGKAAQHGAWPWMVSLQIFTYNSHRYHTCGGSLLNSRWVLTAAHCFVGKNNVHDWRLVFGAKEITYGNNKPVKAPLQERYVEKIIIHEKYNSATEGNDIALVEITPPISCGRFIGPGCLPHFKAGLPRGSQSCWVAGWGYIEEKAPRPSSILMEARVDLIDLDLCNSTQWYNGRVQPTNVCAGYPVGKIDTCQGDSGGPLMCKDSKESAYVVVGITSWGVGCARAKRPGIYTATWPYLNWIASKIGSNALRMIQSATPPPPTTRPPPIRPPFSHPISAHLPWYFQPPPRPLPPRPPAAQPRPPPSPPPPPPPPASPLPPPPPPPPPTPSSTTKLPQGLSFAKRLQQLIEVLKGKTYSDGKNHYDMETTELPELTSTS
Text: Dieser Test stellt das eigentliche Primärscreening dar. Er gibt einen Anhaltspunkt über die inhibitorische Effektivität einer Verbindung am Enzym (Humanakrosin) selbst, erlaubt aber noch keine Aussage über die biologische Effektivität (d.h. Hemmung von Akrosin im intakten Spermium sowie kontrazeptive Wirksamkeit) der untersuchten Verbindungen.
Das durch eine saure Extraktion aus Humansperma gewonnene Enzym Akrosin wird mit verschiedenen Konzentrationen des potentiellen Inhibitors inkubiert, und es wird diejenige Konzentration bestimmt, die zu einer 50 %igen Hemmung der Akrosinaktivität führt. Die […] Akrosin spaltet physiologischerweise bevorzugt Arginin- und Lysin-Gruppen. Deshalb wird für die in vitro-Untersuchung zur Aktivitätsbestimmung von Akrosin ein Benzoyl-Arginin-Äthylester als Substrat verwendet.

Maussperma = test: In vitro fertilisation (mouse); type: cell-based, Maus; conditions: for % Fertilisation: after 24 h; for Anzahl 2-Zellen-Embryos: counted after 24 h
Text: Dieser Test erlaubt eine erste Überprüfung der kontrazeptiven Effektivität sowie eine Überprüfung des Wirkprinzips per se:
In einem Mediumtropfen nach Brinster, Whitten und Whittingham, der den Inhibitor enthält, werden zunächst die durch Superovulation gewonnenen Oocyten überführt. Anschließend wird ein Aliquot des unbehandelten Maussperma hinzupipettiert. Die Konzentrationen des Inhibitors werden so gewählt, daß keine Hemmung der Motilität vorliegt. 24 Stunden später wird die Anzahl der geteilten und nicht geteilten Oocyten und damit die Fertilitätsrate bestimmt.
Es wird also überprüft, ob der zu untersuchende Akrosininhibitor, appliziert in einem System, in dem es zum unmittelbaren Kontakt zwischen Oocyte und Spermium kommt, eine Fertilisation hemmen kann - ohne daß eine Hemmung der Motilität der Spermien vorliegt.

Kaninchen = test: In vivo fertilisation (rabbit) after artificial insemination of preincubated sperm; conditions: sperm preincubated with 500 µg/ml, 36 h after insemination; for % geteilt: fertility rate; for geteilt: number of divided oocytes; for nicht geteilt: number of undivided oocytes
Text: Dieser Test ermöglicht Aussagen zur kontrazeptiven Effektivität unter in-vivo-Bedingungen:
Kaninchensperma, das mit Hilfe einer künstlichen Vagina gewonnen wird, wird mit dem zu untersuchenden Akrosininhibitor präinkubiert. Anschließend werden zur Induktion einer Superovulation mit PMS (pregnant mare serum) vorbehandelte Kaninchenweibchen mit dem vorbehandelten Sperma artifiziell inseminiert. Zur Auslösung der […] erhalten sie abschließend HCG (human chorionic gonadotropin).
36 Stunden später werden die Tiere getötet, die Ovidukte und Uteri entnommen und gespült, um die frühen Embryonen bzw. ungeteilten Oocyten zu gewinnen und anhand deren Anzahl die Fertilisationsrate zu bestimmen.

Humanakrosin [2] = biological target: T1, Humanakrosin; test: Gelatinolysis test: acrosin inhibition in intact human spermatozoa (halo formation, semiquantitative); type: cell-based; conditions: Humansperma preincubated with inhibitor
Text: Dieser Test ist ebenfalls als Bestandteil des Primärscreenings anzusehen. Für die erwünschte kontrazeptive Wirkung eines Akrosininhibitors ist es - neben der eigentlichen Akrosinhemmung am isolierten Enzym - von essentieller Bedeutung, daß ein solcher Inhibitor in der Lage ist, das Plasmalemm und die äußere akrosomale Membran eines intakten Spermiums zu durchdringen, da Akrosin an der inneren akrosomalen Membran lokalisiert ist.
Als besonders geeignet für die Untersuchung dieser speziellen Fragestellung hat sich das Gelatinolyse-Modell nach P. Gaddum und R.Z. Blandau (Science 170: 749 - 751), modifiziert nach W.B. Schill (Int. J. Andrology 4: 25 - 38) und nach eigenen Ausarbeitungen erwiesen. Bei dieser Methode wird mit unbelichteten, fixierten und mit Methylenblau gefärbten Filmplatten für die Autoradiographie gearbeitet, deren Gelatineschicht durch die lytische Aktivität von Akrosin aufgelöst wird. Als Folge bilden sich um die Spermienköpfe gut sichtbare, weite Höfe (sog. Halo-Bildung/ Lysishof). Bei einer Hemmung von Akrosin unterbleibt die Ausbildung dieser Höfe.
Um die Penetrierfähigkeit eines erwiesenen Akrosininhibitors und damit die Hemmung von Akrosin am intakten Spermium zu untersuchen, wird Humansperma mit mehreren Konzentrationen des Inhibitors präinkubiert. […]

IC50 (Humanakrosin [1]) | Gelatinolyse: Hemmung der Akrosinaktivität (Humanakrosin [2]; 1 µg/ml) | Gelatinolyse: Hemmung der Akrosinaktivität (Humanakrosin [2]; 10 µg/ml) | Structure (SMILES) | % Fertilisation (Maussperma; 5 ug/ml) | Anzahl 2-Zellen-Embryos (Maussperma; 5 ug/ml) | % Fertilisation (Maussperma; 50 ug/ml) | Anzahl 2-Zellen-Embryos (Maussperma; 50 ug/ml) | % geteilt (Kaninchen) | geteilt (Kaninchen) | nicht geteilt (Kaninchen)
0.55 µM |  |  | COC(=O)c1cccc(OC(=O)c2ccc(NC(=N)N)cc2)c1 [Verbindung 5, 4-Guanidinobenzoesäure-(3-methoxycarbonylphenyl)-ester Hydrochlorid] |  |  |  |  |  |  | 
0.04 µM |  |  | N#Cc1ccccc1OC(=O)c1ccc(NC(=N)N)cc1 [Verbindung 2, 4-Guanidinobenzoesäure-(2-cyanophenyl)-ester Hydrochlorid] | 59% | 134 | 7% | 22 | 1% | 2 | 158
0.32 µM |  |  | N=C(N)Nc1ccc(C(=O)Oc2cccc(C(N)=O)c2)cc1 [Verbindung 6, 4-Guanidinobenzoesäure-(3-carbamoylphenyl)-ester Hydrochlorid] |  |  |  |  |  |  | 
0.733 µM | ++ bis +++ | + bis ++ | COC(=O)c1ccccc1OC(=O)c1ccc(NC(=N)N)cc1 [Verbindung 1, 4-Guanidinobenzoesäure-(2-methoxycarbonylphenyl)-ester Hydrochlorid, reference compound] | 78% | 195 |  |  | 51% | 88 | 83
0.2 µM |  |  | CCOC(=O)c1cccc(OC(=O)c2ccc(NC(=N)N)cc2)c1 [Verbindung 3, 4-Guanidinobenzoesäure-(3-ethoxycarbonylphenyl)-ester Hydrochlorid] |  |  |  |  | 1% |  | 
